Results taken from patent publication US8546377B2 (AbbVie Inc., priority 2009, dated 2013).
Read-outs that look alike come from different tables or passages of the source.

Legend:
[1] = target: T1, 5HT2B receptors (Homo sapiens, UniProt P41595); assay: Human 5-HT2B functional assay in CHO-K1 cells (calcium flux, FLIPR); type: cell-based
T1 construct: expressed in transfected cells; host or cells: CHO-K1 cells
Summary of the method: (§1)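 EC50 came from a 4-parameter logistic fit, with Emax expressed relative to serotonin, of intracellular Ca2+ rises read on FLIPR at 480/530 nm, 25° C, over 3 min. Compounds ran from 10 μM in six 1:10 steps (0.2% DMSO) on serum-starved CHO-K1 transfectants pre-loaded 60 min with Ca4 dye and probenecid.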

[2] = target: T2, 5HT2C receptors (Homo sapiens, UniProt P28335); assay: Human 5-HT2C functional assay in CHO-K1 cells (calcium flux, FLIPR); type: cell-based; set-up: expressed in transfected cells; host or cells: CHO-K1 cells; settings: for Emax: percentage relative to the effect of serotonin
T2 sequence (P28335 33-458): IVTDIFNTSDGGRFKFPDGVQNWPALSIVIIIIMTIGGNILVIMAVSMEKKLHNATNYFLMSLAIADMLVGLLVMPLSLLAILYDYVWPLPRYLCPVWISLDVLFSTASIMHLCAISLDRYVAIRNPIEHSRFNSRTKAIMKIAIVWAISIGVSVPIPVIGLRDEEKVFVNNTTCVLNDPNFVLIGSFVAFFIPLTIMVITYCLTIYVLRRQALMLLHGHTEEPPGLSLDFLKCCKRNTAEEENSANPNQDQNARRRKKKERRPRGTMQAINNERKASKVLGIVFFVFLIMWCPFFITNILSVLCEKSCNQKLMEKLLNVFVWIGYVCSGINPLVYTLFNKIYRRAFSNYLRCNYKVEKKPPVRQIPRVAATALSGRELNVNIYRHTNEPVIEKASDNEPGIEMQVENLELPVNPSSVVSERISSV
Summary of the method: as §1

[3] = CHO-K1, read-out: Emax (%), 5-HT2c Agonist Activity, CHO-K1 cells
[4] = CHO-K1 cells over-expressing 5HT2B, calcium flux, read-out: EC50 (μM), 5-HT2B Agonist Activity
[5] = CHO-K1 cells over-expressing 5HT2C, calcium flux, read-out: EC50 (μM), 5-HT2c Agonist Activity
[6] = CHO-K1 cells, read-out: Emax (%), 5-HT2c Agonist Activity
[7] = CHO-K1 cells, percentage relative to the effect of serotonin, read-out: Emax (%), 5-HT2B Agonist Activity

T1 sequence (P41595 whole entry): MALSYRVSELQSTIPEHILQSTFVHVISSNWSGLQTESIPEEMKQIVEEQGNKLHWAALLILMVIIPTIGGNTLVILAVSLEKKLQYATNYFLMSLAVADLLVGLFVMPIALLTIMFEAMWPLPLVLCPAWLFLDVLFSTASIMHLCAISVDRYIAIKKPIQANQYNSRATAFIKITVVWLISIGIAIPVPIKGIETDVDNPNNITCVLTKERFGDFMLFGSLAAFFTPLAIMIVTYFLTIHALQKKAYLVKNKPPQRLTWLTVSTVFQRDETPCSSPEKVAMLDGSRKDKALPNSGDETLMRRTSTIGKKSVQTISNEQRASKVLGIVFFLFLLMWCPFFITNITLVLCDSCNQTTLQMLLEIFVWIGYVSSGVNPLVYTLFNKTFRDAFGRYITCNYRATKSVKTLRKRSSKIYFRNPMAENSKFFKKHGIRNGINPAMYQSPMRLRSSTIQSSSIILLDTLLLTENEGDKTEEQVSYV

| SMILES | EC50 [1] [µM] | EC50 [2] [µM] | Emax [2, 3] [%] | Emax ([1]; CHO-K1, read-out: Emax (%), 5-HT2B Agonist Activity) [%] | EC50 [1, 4] [µM] | EC50 [2, 5] [µM] | Emax [2, 6] [%] | Emax [1, 7] [%] |
| --- | --- | --- | --- | --- | --- | --- | --- | --- |
| Clc1ccc2c(c1)OCC[C@H]1CNCCN21 [Example 179, (4aS)-9-chloro-2,3,4,4a,5,6-hexahydro-1H-pyrazino[2,1-d][1,5]benzoxazepine] | > 10 | 0.008 | > 120 |  |  |  |  |  |
| c1ccc2c(c1)CCCC1CNCCN21 (centres unmarked) [Example 182, 1,2,3,4,4a,5,6,7-octahydropyrazino[1,2-a][1]benzazepine] | 0.1 | 0.007 | > 120 | 40 |  |  |  |  |
| CN1CCN2c3ccccc3CCCC2C1 (centres unmarked) [Example 183, 3-methyl-1,2,3,4,4a,5,6,7-octahydropyrazino[1,2-a][1]benzazepine] | > 10 | 0.003 | > 120 |  |  |  |  |  |
| O=C1CC2CNCCN2c2cc(Cc3ccccc3)ccc2N1 (centres unmarked) [Example 185, 10-benzyl-1,2,3,4,4a,5-hexahydropyrazino[1,2-a][1,5]benzodiazepin-6(7H)-one] |  |  |  |  | > 10 | 0.03 | > 120 |  |
| Clc1ccc2c(c1)N1CCN(Cc3ccccc3)C[C@@H]1CCO2 [Example 186, (4aS)-3-benzyl-10-chloro-2,3,4,4a,5,6-hexahydro-1H-pyrazino[2,1-d][1,5]-benzoxazepine] |  |  |  |  | > 10 | 0.8 | > 120 |  |
| c1ccc(-c2ccc3c(c2)N2CCNC[C@@H]2CCO3)cc1 [Example 187, (4aS)-10-phenyl-2,3,4,4a,5,6-hexahydro-1H-pyrazino[2,1-d][1,5]benzoxazepine] |  |  |  |  | 6 | 0.03 | > 120 | 10 |
| CN1CCN2c3cc(Cl)ccc3OCC[C@H]2C1 [Example 188, (4aS)-10-chloro-3-methyl-2,3,4,4a,5,6-hexahydro-1H-pyrazino[2,1-d][1,5]benzoxazepine] | > 10 | 0.01 | 70 |  |  |  |  |  |
| Cc1ccccc1-c1ccc2c(c1)N1CCNC[C@@H]1CCO2 [Example 189, (4aS)-10-(2-methylphenyl)-2,3,4,4a,5,6-hexahydro-1H-pyrazino[2,1-d][1,5]benzoxazepine] |  |  |  |  | 1 | 0.03 | > 120 | 20 |
| Cc1cccc(-c2ccc3c(c2)N2CCNC[C@@H]2CCO3)c1 [Example 190, (4aS)-10-(3-methylphenyl)-2,3,4,4a,5,6-hexahydro-1H-pyrazino[2,1-d][1,5]benzoxazepine] |  |  |  |  | > 10 | 0.02 | > 120 |  |
| Cc1ccc(-c2ccc3c(c2)N2CCNC[C@@H]2CCO3)cc1 [Example 191, (4aS)-10-(4-methylphenyl)-2,3,4,4a,5,6-hexahydro-1H-pyrazino[2,1-d][1,5]benzoxazepine] |  |  |  |  | > 10 | 0.4 | > 120 |  |
| COc1ccccc1-c1ccc2c(c1)N1CCNC[C@@H]1CCO2 [Example 192, (4aS)-10-(2-methoxyphenyl)-2,3,4,4a,5,6-hexahydro-1H-pyrazino[2,1-d][1,5]benzoxazepine] |  |  |  |  | 1 | 0.03 | > 120 | 10 |
| COc1cccc(-c2ccc3c(c2)N2CCNC[C@@H]2CCO3)c1 [Example 193, (4aS)-10-(3-methoxyphenyl)-2,3,4,4a,5,6-hexahydro-1H-pyrazino[2,1-d][1,5]benzoxazepine] |  |  |  |  | 1 | 0.008 | > 120 | 25 |
| COc1ccc(-c2ccc3c(c2)N2CCNC[C@@H]2CCO3)cc1 [Example 194, (4aS)-10-(4-methoxyphenyl)-2,3,4,4a,5,6-hexahydro-1H-pyrazino[2,1-d][1,5]benzoxazepine] |  |  |  |  | > 10 | 0.4 | > 120 |  |
| CS(=O)(=O)c1ccccc1-c1ccc2c(c1)N1CCNC[C@@H]1CCO2 [Example 195, (4aS)-10-[2-(methylsulfonyl)phenyl]-2,3,4,4a,5,6-hexahydro-1H-pyrazino[2,1-d][1,5]benzoxazepine] |  |  |  |  | 0.3 | 0.007 | > 120 | 55 |
| CS(=O)(=O)c1cccc(-c2ccc3c(c2)N2CCNC[C@@H]2CCO3)c1 [Example 196, (4aS)-10-[3-(methylsulfonyl)phenyl]-2,3,4,4a,5,6-hexahydro-1H-pyrazino[2,1-d][1,5]benzoxazepine] |  |  |  |  | > 10 | 0.009 | > 120 |  |
| CC(=O)c1ccccc1-c1ccc2c(c1)N1CCNC[C@@H]1CCO2 [Example 197, 1-{2-[(4aS)-2,3,4,4a,5,6-hexahydro-1H-pyrazino[2,1-d][1,5]benzoxazepin-10-yl]phenyl}ethanone] |  |  |  |  | 1 | 0.07 | > 120 | 15 |
| CC(=O)c1cccc(-c2ccc3c(c2)N2CCNC[C@@H]2CCO3)c1 [Example 198, 1-{3-[(4aS)-2,3,4,4a,5,6-hexahydro-1H-pyrazino[2,1-d][1,5]benzoxazepin-10-yl]phenyl}ethanone] |  |  |  |  | 1 | 0.01 | > 120 | 25 |
| CC(=O)c1ccc(-c2ccc3c(c2)N2CCNC[C@@H]2CCO3)cc1 [Example 199, 1-{4-[(4aS)-2,3,4,4a,5,6-hexahydro-1H-pyrazino[2,1-d][1,5]benzoxazepin-10-yl]phenyl}ethanone] |  |  |  |  | 8 | 0.9 | > 120 | 10 |
| Oc1ccccc1-c1ccc2c(c1)N1CCNC[C@@H]1CCO2 [Example 200, 2-[(4aS)-2,3,4,4a,5,6-hexahydro-1H-pyrazino[2,1-d][1,5]benzoxazepin-10-yl]phenol] |  |  |  |  | > 10 | 0.01 | > 120 |  |
| Oc1cccc(-c2ccc3c(c2)N2CCNC[C@@H]2CCO3)c1 [Example 201, 3-[(4aS)-2,3,4,4a,5,6-hexahydro-1H-pyrazino[2,1-d][1,5]benzoxazepin-10-yl]phenol] |  |  |  |  | > 10 | 0.2 | > 120 |  |
| Oc1ccc(-c2ccc3c(c2)N2CCNC[C@@H]2CCO3)cc1 [Example 202, 4-[(4aS)-2,3,4,4a,5,6-hexahydro-1H-pyrazino[2,1-d][1,5]benzoxazepin-10-yl]phenol] |  |  |  |  | 1 | 0.005 | > 120 | 15 |
| Fc1ccccc1-c1ccc2c(c1)N1CCNC[C@@H]1CCO2 [Example 203, (4aS)-10-(2-fluorophenyl)-2,3,4,4a,5,6-hexahydro-1H-pyrazino[2,1-d][1,5]-benzoxazepine] |  |  |  |  | 2 | 0.02 | > 120 | 15 |
| Fc1cccc(-c2ccc3c(c2)N2CCNC[C@@H]2CCO3)c1 [Example 204, (4aS)-10-(3-fluorophenyl)-2,3,4,4a,5,6-hexahydro-1H-pyrazino[2,1-d][1,5]benzoxazepine] |  |  |  |  | > 10 | 0.05 | > 120 |  |
| Fc1ccc(-c2ccc3c(c2)N2CCNC[C@@H]2CCO3)cc1 [Example 205, (4aS)-10-(4-fluorophenyl)-2,3,4,4a,5,6-hexahydro-1H-pyrazino[2,1-d][1,5]benzoxazepine] |  |  |  |  | 5 | 0.05 | > 120 | 10 |
| c1cncc(-c2ccc3c(c2)N2CCNC[C@@H]2CCO3)c1 [Example 206, (4aS)-10-(pyridin-3-yl)-2,3,4,4a,5,6-hexahydro-1H-pyrazino[2,1-d][1,5]benzoxazepine] | > 10 | 0.07 | > 120 |  |  |  |  |  |
| c1cc(-c2ccc3c(c2)N2CCNC[C@@H]2CCO3)ccn1 [Example 207, (4aS)-10-(pyridin-4-yl)-2,3,4,4a,5,6-hexahydro-1H-pyrazino[2,1-d][1,5]benzoxazepine] |  |  | > 120 |  | > 10 | 0.8 |  |  |
| CC(C)=Cc1ccc2c(c1)N1CCNC[C@@H]1CCO2 [Example 208, (4aS)-10-(2-methylprop-1-en-1-yl)-2,3,4,4a,5,6-hexahydro-1H-pyrazino[2,1-d][1,5]benzoxazepine] |  |  |  |  | 0.1 | 0.001 | > 120 | 50 |
| C1=C(c2ccc3c(c2)N2CCNC[C@@H]2CCO3)CCCC1 [Example 209, (4aS)-10-(cyclohex-1-en-1-yl)-2,3,4,4a,5,6-hexahydro-1H-pyrazino[2,1-d][1,5]benzoxazepine] |  |  |  |  | > 10 | 0.01 | > 120 |  |
| C1=C(c2ccc3c(c2)N2CCNC[C@@H]2CCO3)CCOC1 [Example 210, (4aS)-10-(3,6-dihydro-2H-pyran-4-yl)-2,3,4,4a,5,6-hexahydro-1H-pyrazino[2,1-d][1,5]benzoxazepine] |  |  |  |  | 1 | 0.01 | > 120 | 20 |
